# Experimental data published in PMC4405831, “Mast cell regulation of Na-glutamine co-transporters B0AT1 in villus and SN2 in crypt cells during chronic intestinal inflammation” (BMC Gastroenterology, 2015).
# Test system: T1, B0AT1
# T1 construct: gene SLC6A19; native full-length transporter in brush border membrane vesicles from ileal villus cells; not purified
# Assay: 3H-glutamine uptake into villus BBMV, rapid filtration, […] s
# Assay type: biochemical, Oryctolagus cuniculus
# Conditions: labelled compound; Na-dependent uptake (100 mM NaCl minus choline), pH 7.5, voltage clamped; normal (control) rabbits
smiles,measurement,value
NC(=O)CC[C@H](N)C(=O)O [glutamine],Km,24 ± 1.5 mM
